# Laboratory results published in ChEMBL document CHEMBL2074065, “Pravastatin, an HMG-CoA reductase inhibitor, is transported by rat organic anion transporting polypeptide, oatp2” (Pharm Res, 1999).
# T1: Solute carrier organic anion transporter family member 1A4 (Rattus norvegicus, UniProt O35913)
# T1 sequence (O35913 whole entry): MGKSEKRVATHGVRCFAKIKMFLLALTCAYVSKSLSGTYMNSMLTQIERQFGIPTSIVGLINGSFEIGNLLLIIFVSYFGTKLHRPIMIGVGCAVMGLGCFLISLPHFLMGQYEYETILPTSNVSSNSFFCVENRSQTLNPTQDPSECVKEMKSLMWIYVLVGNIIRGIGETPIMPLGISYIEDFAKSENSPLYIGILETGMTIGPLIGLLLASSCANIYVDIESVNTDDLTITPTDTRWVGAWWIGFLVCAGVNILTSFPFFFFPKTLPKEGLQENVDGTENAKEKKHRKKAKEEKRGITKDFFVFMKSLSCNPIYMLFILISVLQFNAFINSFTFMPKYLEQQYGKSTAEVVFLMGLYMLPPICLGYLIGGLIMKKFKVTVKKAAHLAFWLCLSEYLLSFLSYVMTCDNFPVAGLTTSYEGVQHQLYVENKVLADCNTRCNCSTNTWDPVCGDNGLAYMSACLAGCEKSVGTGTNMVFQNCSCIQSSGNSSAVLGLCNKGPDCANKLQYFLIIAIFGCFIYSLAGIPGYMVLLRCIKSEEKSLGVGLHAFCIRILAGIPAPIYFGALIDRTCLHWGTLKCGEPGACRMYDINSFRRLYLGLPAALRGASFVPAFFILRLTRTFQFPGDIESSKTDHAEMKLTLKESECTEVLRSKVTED
# Columns and labels:
# [1] = target: T1, Solute carrier organic anion transporter family member 1A4; test: TP_TRANSPORTER: inhibition of Pravastatin uptake (Pravastatin: 30 uM, Simvastatin: 300 uM) in Xenopus laevis oocytes; format: functional, cell-based; details: oocyte
# [2] = target: T1, Solute carrier organic anion transporter family member 1A4; test: TP_TRANSPORTER: inhibition of Pravastatin uptake (Pravastatin: 30 uM, BSP: 300 uM) in Xenopus laevis oocytes; format: functional, cell-based; details: oocyte
# [3] = target: T1, Solute carrier organic anion transporter family member 1A4; test: TP_TRANSPORTER: inhibition of Pravastatin uptake (Pravastatin: 30 uM, E217betaG: 300 uM) in Xenopus laevis oocytes; format: functional, cell-based; details: oocyte
# [4] = substrate: CC[C@H](C)C(=O)O[C@H]1C[C@H](O)C=C2C=C[C@H](C)[C@H](CC[C@@H](O)C[C@@H](O)CC(=O)O)[C@H]21; test: TP_TRANSPORTER: uptake in Xenopus laevis oocytes; format: functional, cell-based, Oocyte
molecule,measurement,setting,value
CCC(C)(C)C(=O)O[C@H]1C[C@@H](C)C=C2C=C[C@H](C)[C@H](CC[C@@H]3C[C@@H](O)CC(=O)O3)[C@H]21 [SIMVASTATIN],Activity,[1],inhibitor [+]
O=C1OC(c2ccc(O)c(S(=O)(=O)[O-])c2)(c2ccc(O)c(S(=O)(=O)[O-])c2)c2c(Br)c(Br)c(Br)c(Br)c21.[Na+].[Na+] [SULFOBROMOPHTHALEIN SODIUM],Activity,[2],inhibitor [+]
C[C@]12CC[C@@H]3c4ccc(O)cc4CC[C@H]3[C@@H]1CC[C@@H]2O[C@@H]1O[C@H](C(=O)O)[C@@H](O)[C@H](O)[C@H]1O [ESTRADIOL 17B GLUCURONIDE],Activity,[3],inhibitor [+]
Solute carrier organic anion transporter family member 1A4 (Rattus norvegicus) (protein) MGKSEKRVATHGVRCFAKIKMFLLALTCAYVSKSLSGTYMNSMLTQIERQFGIPTSIVGLINGSFEIGNLLLIIFVSYFGTKLHRPIMIGVGCAVMGLGCFLISLPHFLMGQYEYETILPTSNVSSNSFFCVENRSQTLNPTQDPSECVKEMKSLMWIYVLVGNIIRGIGETPIMPLGISYIEDFAKSENSPLYIGILETGMTIGPLIGLLLASSCANIYVDIESVNTDDLTITPTDTRWVGAWWIGFLVCAGVNILTSFPFFFFPKTLPKEGLQENVDGTENAKEKKHRKKAKEEKRGITKDFFVFMKSLSCNPIYMLFILISVLQFNAFINSFTFMPKYLEQQYGKSTAEVVFLMGLYMLPPICLGYLIGGLIMKKFKVTVKKAAHLAFWLCLSEYLLSFLSYVMTCDNFPVAGLTTSYEGVQHQLYVENKVLADCNTRCNCSTNTWDPVCGDNGLAYMSACLAGCEKSVGTGTNMVFQNCSCIQSSGNSSAVLGLCNKGPDCANKLQYFLIIAIFGCFIYSLAGIPGYMVLLRCIKSEEKSLGVGLHAFCIRILAGIPAPIYFGALIDRTCLHWGTLKCGEPGACRMYDINSFRRLYLGLPAALRGASFVPAFFILRLTRTFQFPGDIESSKTDHAEMKLTLKESECTEVLRSKVTED,Km,[4],37.5 µM
